Holding throughout (format): functional
Test [1] has as its system Bacillus subtilis. Description: Antibacterial activity against Bacillus subtilis ATCC 6633 assessed as diamater of growth inhibition zone after 24 hr by agar cup diffusion method.
Test [2] concerns Escherichia coli. Description: Antibacterial activity against Escherichia coli ATCC 11775 assessed as diamater of growth inhibition zone after 24 hr by agar cup diffusion method.
In test [3] the test system is Pseudomonas aeruginosa. Description: Antibacterial activity against Pseudomonas aeruginosa ATCC 10145 assessed as diamater of growth inhibition zone after 24 hr by agar cup diffusion method.
Test [4] deals with Candida albicans. Put plainly: Antifungal activity against Candida albicans DSM 70014 assessed as diamater of growth inhibition zone after 48 hr by agar cup diffusion method.
Test [5] has as its system Staphylococcus aureus. Description: Antibacterial activity against Staphylococcus aureus DSM 1104 assessed as growth inhibition after 24 hr by two fold serial dilution method. The settings on record: DSM 1104, 24 h.
In test [6] the test system is Bacillus subtilis. Put plainly: Antibacterial activity against Bacillus subtilis ATCC 6633 assessed as growth inhibition after 24 hr by two fold serial dilution method. Conditions: ATCC 6633, 24 h.
Test [7] has as its system Escherichia coli. Description: Antibacterial activity against Escherichia coli ATCC 11775 assessed as growth inhibition after 24 hr by two-fold serial dilution method. Conditions: ATCC 11775, 24 h.
Test [8] has as its system Pseudomonas aeruginosa. Description: Antibacterial activity against Pseudomonas aeruginosa ATCC 10145 assessed as growth inhibition after 24 hr by two-fold serial dilution method. The settings on record: ATCC 10145, 24 h.
Test [9] deals with Pseudomonas aeruginosa. Put plainly: Antibacterial activity against Pseudomonas aeruginosa ATCC 10145 assessed as growth inhibition after 24 hr. The settings on record: ATCC 10145, 24 h.
Test [10] concerns Candida albicans. Put plainly: Antifungal activity against Candida albicans DSM 70014 assessed as growth inhibition after 48 hr. The settings on record: DSM 70014, 48 h.
In test [11] the test system is Escherichia coli. Description: Antibacterial activity against Escherichia coli ATCC 11775 assessed as growth inhibition after 24 hr. Conditions: ATCC 11775, 24 h.
The test system of test [12] is Bacillus subtilis. Description: Antibacterial activity against Bacillus subtilis ATCC 6633 assessed as growth inhibition after 24 hr. Conditions: ATCC 6633, 24 h.
For test [13], the system named is Staphylococcus aureus. Put plainly: Antibacterial activity against Staphylococcus aureus DSM 1104 assessed as growth inhibition after 24 hr. The settings on record: DSM 1104, 24 h.
Test [14] has as its system Candida albicans. Put plainly: Antifungal activity against Candida albicans DSM 70014 assessed as growth inhibition after 48 hr by two-fold serial dilution method. Conditions: DSM 70014, 48 h.
In test [15] the test system is Staphylococcus aureus. Put plainly: Antibacterial activity against Staphylococcus aureus DSM 1104 assessed as diamater of growth inhibition zone after 24 hr by agar cup diffusion method.

Values after ≈ are worked out from the molar mass of the structure shown.

As a reminder, the MIC is the least concentration at which growth counts as inhibited. A word on the MBC: it is the smallest concentration meeting the test's criterion for killing. Usually MFC stands for the lowest tested concentration that kills the fungus rather than only halting it. For `COc1ccc(/C=N/N=c2\scc(C3=CC(=O)C=CC3=O)n2-c2ccccc2)cc1`, the “diameter of the inhibition zone (DIZ)” value in [1] is recorded as 15 mm; in test [2], 16 mm; in test [3], 15 mm; in test [4] it was 15 mm; in test [15] it was 15 mm. Moreover, the minimum inhibitory concentration (MIC) worked out at 50 µg/mL (≈ 120 µM) in test [5]; 50 µg/mL (≈ 120 µM) in [6]; 25 µg/mL (≈ 60.2 µM) in test [7]; 50 µg/mL (≈ 120 µM) in test [8]; 50 µg/mL (≈ 120 µM) in [14]. For the same molecule, the MBC in test [9], in test [11], in test [12] and in [13] was 50 µg/mL (≈ 120 µM) throughout. Further, the MFC in test [10] turned out to be 50 µg/mL (≈ 120 µM).

As to `COc1ccc(OC)c(/C=N/N=c2\scc(C3=CC(=O)C=CC3=O)n2-c2ccccc2)c1`, the “diameter of the inhibition zone (DIZ)” value turned out to be 15 mm in test [1]; 14 mm in test [2]; 14 mm in [3]; 15 mm in test [4]; 14 mm in [15]. Also, the MIC in [5], in test [6], in test [7], in [8] and in [14] was 50 µg/mL (≈ 112 µM) each time. Moreover, the MBC in test [9], in test [11], in test [12] and in test [13] was 50 µg/mL (≈ 112 µM) throughout. Further, the MFC in [10] amounted to 50 µg/mL (≈ 112 µM).

Take `COc1cc(/C=N/N=c2\scc(C3=CC(=O)C=CC3=O)n2-c2ccccc2)ccc1O`: the “diameter of the inhibition zone (DIZ)” value in test [1] worked out at 15 mm; in [2] it was 15 mm; in test [3] it was 14 mm; in test [4] it was 12 mm; in [15] it was 15 mm. The minimum inhibitory concentration (MIC) in [5] came to 25 µg/mL (≈ 57.9 µM); in test [6] it was 50 µg/mL (≈ 116 µM); in test [7] it was 100 µg/mL (≈ 232 µM); in test [8], 100 µg/mL (≈ 232 µM); in test [14], 25 µg/mL (≈ 57.9 µM). Moreover, the MBC turned out to be 100 µg/mL (≈ 232 µM) in test [9], 100 µg/mL (≈ 232 µM) in [11], 100 µg/mL (≈ 232 µM) in test [12] and 50 µg/mL (≈ 116 µM) in [13]. Further, in test [10], the MFC is 50 µg/mL (≈ 116 µM).

For the molecule `COc1ccc(/C=N/N=c2\scc(C3=CC(=O)C=CC3=O)n2-c2ccccc2)cc1O`, the “diameter of the inhibition zone (DIZ)” value in test [1] is 15 mm; in [2] it was 14 mm; in test [3], 16 mm; in [4], 14 mm; in test [15], 14 mm. In addition, the MIC in test [5] stood at 50 µg/mL (≈ 116 µM); in [6], 100 µg/mL (≈ 232 µM); in test [7], 50 µg/mL (≈ 116 µM); in [8], 100 µg/mL (≈ 232 µM); in test [14] it was 100 µg/mL (≈ 232 µM). Besides, the MBC in test [9] was found to be 100 µg/mL (≈ 232 µM); in test [11] it was 50 µg/mL (≈ 116 µM); in test [12], 100 µg/mL (≈ 232 µM); in test [13], 50 µg/mL (≈ 116 µM). Further, the MFC in [10] is 100 µg/mL (≈ 232 µM).

Take `COc1ccc(OC)c(/C=N/N=c2\scc(C3=CC(=O)C=CC3=O)n2-c2ccc(C)cc2)c1`: the “diameter of the inhibition zone (DIZ)” value in test [1] is 15 mm; in test [2], 14 mm; in test [3] it was 14 mm; in test [4], 13 mm; in test [15] it was 16 mm. For the same molecule, the MIC in test [5] was 12.5 µg/mL (≈ 27.2 µM); in [6] it was 12.5 µg/mL (≈ 27.2 µM); in test [7], 25 µg/mL (≈ 54.4 µM); in [8] it was 25 µg/mL (≈ 54.4 µM); in [14], 25 µg/mL (≈ 54.4 µM). Besides, the MBC stood at 50 µg/mL (≈ 109 µM) in [9], 50 µg/mL (≈ 109 µM) in [11], 25 µg/mL (≈ 54.4 µM) in test [12] and 25 µg/mL (≈ 54.4 µM) in test [13]. Moreover, the MFC in test [10] came to 50 µg/mL (≈ 109 µM).

As to `COc1cc(/C=N/N=c2\scc(C3=CC(=O)C=CC3=O)n2-c2ccc(C)cc2)ccc1O`, the “diameter of the inhibition zone (DIZ)” value was 15 mm in [1]; 15 mm in test [2]; 15 mm in [3]; 15 mm in test [4]; 14 mm in [15]. The MIC in [5] came to 25 µg/mL (≈ 56.1 µM); in test [6], 100 µg/mL (≈ 224 µM); in test [7] it was 50 µg/mL (≈ 112 µM); in test [8], 100 µg/mL (≈ 224 µM); in test [14] it was 50 µg/mL (≈ 112 µM). For the same molecule, the MBC in test [9] turned out to be 100 µg/mL (≈ 224 µM); in test [11], 50 µg/mL (≈ 112 µM); in test [12] it was 100 µg/mL (≈ 224 µM); in [13], 50 µg/mL (≈ 112 µM). The MFC in test [10] came out at 50 µg/mL (≈ 112 µM).

For `COc1ccc(/C=N/N=c2\scc(C3=CC(=O)C=CC3=O)n2-c2ccc(C)cc2)cc1O`, the “diameter of the inhibition zone (DIZ)” value is given as 14 mm in test [1]; 14 mm in [2]; 14 mm in [3]; 15 mm in test [4]; 15 mm in test [15]. The minimum inhibitory concentration (MIC) turned out to be 100 µg/mL (≈ 224 µM) in test [5]; 50 µg/mL (≈ 112 µM) in test [6]; 50 µg/mL (≈ 112 µM) in test [7]; 50 µg/mL (≈ 112 µM) in test [8]; 50 µg/mL (≈ 112 µM) in test [14]. For the same molecule, the MBC is 50 µg/mL (≈ 112 µM) in test [9], 50 µg/mL (≈ 112 µM) in test [11], 50 µg/mL (≈ 112 µM) in test [12] and 100 µg/mL (≈ 224 µM) in test [13]. The MFC in [10] was 100 µg/mL (≈ 224 µM).

`COc1ccc(/C=N/N=c2\scc(C3=CC(=O)C=CC3=O)n2-c2ccc(Cl)cc2)cc1`: the “diameter of the inhibition zone (DIZ)” value amounted to 15 mm in test [1]; 16 mm in test [2]; 16 mm in test [3]; 14 mm in test [4]; 14 mm in test [15]. Further, the MIC in test [5], in test [6], in test [7], in test [8] and in [14] was 100 µg/mL (≈ 222 µM) in each case. Moreover, the MBC in test [9], in [11], in test [12] and in test [13] was 100 µg/mL (≈ 222 µM) each time. Also, the MFC in [10] came out at 100 µg/mL (≈ 222 µM).

As for `COc1ccc(OC)c(/C=N/N=c2\scc(C3=CC(=O)C=CC3=O)n2-c2ccc(Cl)cc2)c1`, the “diameter of the inhibition zone (DIZ)” value in test [1] turned out to be 14 mm; in [2] it was 13 mm; in test [3], 16 mm; in test [4], 14 mm; in test [15], 14 mm. Moreover, the MIC in [5] was 25 µg/mL (≈ 52.1 µM); in [6] it was 100 µg/mL (≈ 208 µM); in test [7], 100 µg/mL (≈ 208 µM); in [8], 100 µg/mL (≈ 208 µM); in test [14], 50 µg/mL (≈ 104 µM). Also, the MBC in test [9] was 100 µg/mL (≈ 208 µM); in test [11], 100 µg/mL (≈ 208 µM); in test [12], 100 µg/mL (≈ 208 µM); in test [13] it was 50 µg/mL (≈ 104 µM). In [10], the MFC was found to be 100 µg/mL (≈ 208 µM).

In the case of `COc1cc(/C=N/N=c2\scc(C3=CC(=O)C=CC3=O)n2-c2ccc(Cl)cc2)ccc1O`, the “diameter of the inhibition zone (DIZ)” value in [1] is on record as 14 mm; in test [2], 16 mm; in test [3] it was 15 mm; in test [4] it was 15 mm; in test [15] it was 16 mm. The MIC in test [5] is 100 µg/mL (≈ 215 µM); in test [6], 100 µg/mL (≈ 215 µM); in test [7] it was 100 µg/mL (≈ 215 µM); in test [8], 50 µg/mL (≈ 107 µM); in test [14] it was 50 µg/mL (≈ 107 µM). In addition, the minimal bactericidal concentration (MBC) in [9], in [11], in [12] and in test [13] was 100 µg/mL (≈ 215 µM) throughout. Also, the minimum fungicidal concentration (MFC) in [10] turned out to be 50 µg/mL (≈ 107 µM).

Regarding `COc1ccc(/C=N/N=c2\scc(C3=CC(=O)C=CC3=O)n2-c2ccc(Cl)cc2)cc1O`, the “diameter of the inhibition zone (DIZ)” value in test [1] came to 14 mm; in [2], 14 mm; in test [3], 14 mm; in test [4] it was 15 mm; in test [15], 13 mm. Moreover, the MIC in test [5] is 50 µg/mL (≈ 107 µM); in test [6], 25 µg/mL (≈ 53.7 µM); in test [7], 25 µg/mL (≈ 53.7 µM); in test [8], 50 µg/mL (≈ 107 µM); in test [14], 12.5 µg/mL (≈ 26.8 µM). Also, the MBC in test [9], in test [11], in test [12] and in test [13] was 50 µg/mL (≈ 107 µM) in each case. Further, in test [10], the MFC turned out to be 25 µg/mL (≈ 53.7 µM).

For `CC1(C)S[C@@H]2[C@H](NC(=O)[C@H](N)c3ccccc3)C(=O)N2[C@H]1C(=O)O.O.O.O` [AMPICILLIN TRIHYDRATE], the MIC in test [5] came out at 5 µg/mL; in test [6] it was 12.5 µg/mL; in [7], 10 µg/mL; in test [8], 50 µg/mL.

Turning to `Clc1ccccc1C(c1ccccc1)(c1ccccc1)n1ccnc1` [CLOTRIMAZOLE], the MIC in test [14] was determined as 5 µg/mL (≈ 14.5 µM).

Source of the values: ChEMBL document CHEMBL3044795, “Synthesis and biological evaluation of novel benzoquinones as potential antimicrobial agents” (2013).
